Reference: US20140171520A1, “HIGHLY SOLUBLE STEVIA SWEETENER” (priority 2011, published 2014)
Read-outs that look alike come from different tables or passages of the source. Blank lines part the entries; values can stand above or below the molecule they belong to.

Experiments:
[1] = cited from earlier work
[2] = Solubility in reverse osmosis (RO) water at room temperature; assay type: physicochemical; details: g per 100 g solvent
Method: Hereinafter, unless specified otherwise the solubility of material is determined in reverse osmosis (RO) water at room temperature. Where the solubility is expressed as “%” it to be understood as number of grams of material soluble in 100 grams of solvent.

[3] = at 50° C.; U.S. patent application Ser. No. 12/612,374; cited from earlier work

Molecule: C=C1C[C@@]23CC[C@H]4[C@@](C)(CCC[C@@]4(C)C(=O)O[C@@H]4O[C@H](CO)[C@@H](O)[C@H](O)[C@H]4O)[C@@H]2CC[C@]1(O[C@@H]1O[C@H](CO)[C@@H](O)[C@H](O[C@@H]2O[C@H](CO)[C@@H](O)[C@H](O)[C@H]2O)[C@H]1O[C@@H]1O[C@H](CO)[C@@H](O)[C@H](O)[C@H]1O)C3 [Form 4, Rebaudioside A]
- Rate of dissolution in H2O at 25° C. ([1]; in 5 minutes): High (>35%

Molecule: C=C1C[C@@]23CC[C@H]4[C@@](C)(CCC[C@@]4(C)C(=O)O[C@@H]4O[C@H](CO)[C@@H](O)[C@H](O)[C@H]4O)[C@@H]2CC[C@]1(O[C@@H]1O[C@H](CO)[C@@H](O)[C@H](O[C@@H]2O[C@H](CO)[C@@H](O)[C@H](O)[C@H]2O)[C@H]1O[C@@H]1O[C@H](CO)[C@@H](O)[C@H](O)[C@H]1O)C3 [Form 2, Rebaudioside A]
- Rate of dissolution in H2O at 25° C. ([1]; in 5 minutes): (<30% in 5

- water solubility [2]: > 5%
- water solubility ([2]; listed as rebaudioside A): 5.5%
Molecule: C=C1C[C@@]23CC[C@H]4[C@@](C)(CCC[C@@]4(C)C(=O)O[C@@H]4O[C@H](CO)[C@@H](O)[C@H](O)[C@H]4O)[C@@H]2CC[C@]1(O[C@@H]1O[C@H](CO)[C@@H](O)[C@H](O[C@@H]2O[C@H](CO)[C@@H](O)[C@H](O)[C@H]2O)[C@H]1O[C@@H]1O[C@H](CO)[C@@H](O)[C@H](O)[C@H]1O)C3 [Reb A, Rebaudioside A]

Molecule: C=C1C[C@@]23CC[C@H]4[C@@](C)(CCC[C@@]4(C)C(=O)O[C@@H]4O[C@H](CO)[C@@H](O)[C@H](O)[C@H]4O)[C@@H]2CC[C@]1(O[C@@H]1O[C@H](CO)[C@@H](O)[C@H](O[C@@H]2O[C@H](CO)[C@@H](O)[C@H](O)[C@H]2O)[C@H]1O[C@@H]1O[C@H](CO)[C@@H](O)[C@H](O)[C@H]1O)C3 [Form 1, Rebaudioside A]
- solubility among Reb A polymorph forms ([1]; Prakash et al. 2008): lowest solubility
- Rate of dissolution in H2O at 25° C. ([1]; in 60 minutes): (<0.2% in

Molecule: C=C1C[C@@]23CC[C@H]4[C@@](C)(CCC[C@@]4(C)C(=O)O[C@@H]4O[C@H](CO)[C@@H](O)[C@H](O)[C@H]4O[C@@H]4O[C@H](CO)[C@@H](O)[C@H](O)[C@H]4O)[C@@H]2CC[C@]1(O[C@@H]1O[C@H](CO)[C@@H](O)[C@H](O[C@@H]2O[C@H](CO)[C@@H](O)[C@H](O)[C@H]2O)[C@H]1O[C@@H]1O[C@H](CO)[C@@H](O)[C@H](O)[C@H]1O)C3 [anhydrous form of Reb D, Rebaudioside D, reference compound]
- solubility [3]: about 0.15%

Molecule: C=C1C[C@@]23CC[C@H]4[C@@](C)(CCC[C@@]4(C)C(=O)O[C@@H]4O[C@H](CO)[C@@H](O)[C@H](O)[C@H]4O)[C@@H]2CC[C@]1(O[C@@H]1O[C@H](CO)[C@@H](O)[C@H](O[C@@H]2O[C@H](CO)[C@@H](O)[C@H](O)[C@H]2O)[C@H]1O[C@@H]1O[C@H](CO)[C@@H](O)[C@H](O)[C@H]1O)C3 [Form 3, Rebaudioside A]
- Rate of dissolution in H2O at 25° C. ([1]; in 5 minutes): High (>30%

- water solubility [2]: 0.01%
Molecule: Rebaudioside B [Reb B]
